Results published in patent US8993612B2, “Modulators of calcium release-activated calcium channel and methods for treatment of non-small cell lung cancer” (Rhizen Pharmaceuticals SA, priority 2009, dated 2015).

Columns and labels:
Type in all cases: cell-based
CRAC channels = CRAC channels (Homo sapiens (Human), UniProt Q96D31); experiment: In-vitro CRAC channel inhibition assay in Jurkat cells (thapsigargin-induced calcium influx)
Procedure: Inhibition of CRAC channels was determined following thapsigargin (Sigma, Cat # T9033) induced endoplasmic calcium release in Jurkat cells. (see Yasurio Yonetoky et. al Bio. & Med. Chem. 14 (2006) 4750-4760). Cells were centrifuged and resuspended in equal volumes ° f Ca^2+ and Mg^2+ free Hanks buffer and Fluo-8 NW dye (ABD Bioquest, Inc., Sunnyvale, Calif.) loading solution at 2×10^5 cells/100 μl/well in 96-well black plate. Plate is incubated at 37° C./5% CO2 for 30 mM followed by further 15 mM incubation at room temperature. Test compounds (DMSO stocks diluted in Ca^2+ and Mg^2+ free Hanks buffer) at desired concentrations were added to the wells and incubated for […]. Thapsigargin (1 μM final concentration) was added to the wells and incubated for 15 min to inhibit the Sarco-endoplasmic reticulum Ca^2+ ATPase pump thereby depleting endoplasmic calcium and raising cytosolic calcium concentrations. Store-operated calcium entry was initiated by adding extracellular Ca^2+ to a final concentration of 1.8 mM. Fluorescence was monitored over […] on a plate reader (BMG Labtech., Germany) with excitation at 485 nm and an emission wavelength at 520 nm. Data were analyzed using GraphPad Prism. IC50 for each compound was determined based on the percent inhibition of thapsigargin-induced calcium influx into cells.

IL-2 [1] = experiment: Inhibition of IL-2 release in human whole blood; details: Concanavalin A + PMA, 20 h, read-out: IC 50 Human Whole Blood IL-2
Procedure: (§1) Inhibition of cytokine IL-2, IL-4, IL-5 and TNF α was determined as described below.
(§2) Freshly collected HWB was diluted with RPMI medium (1:4.5) and added to a 96-well plate. Wells were incubated with desired concentrations of the inhibitor for 15 min. Cytokine release was induced by the addition of Concanavalin A (25 μg/ml)+Phorbol Myristate Acetate (50 ng/ml) for IL-2 & TNFα or with Phytohemagglutinin (5 μg/ml) for IL-4 & IL-5 and incubated at 37° C. in an atmosphere containing […]. Supernatant was collected after 20 h (IL-2 & TNFα) or 48 h (IL-4 & IL-5) for estimation of cytokines by ELISA. Data were analysed using GraphPad Prism. IC50 values for each compound were determined based on the percent inhibition due to the test compound compared to the control.

TNFα [2] = experiment: Inhibition of TNFα release in human whole blood; details: Concanavalin A + PMA, 20 h, read-out: IC 50 Human Whole Blood TNFα
Procedure: as §1, §2

IL-5 [3] = experiment: Inhibition of IL-5 release in human whole blood; details: Phytohemagglutinin, 48 h, read-out: IC 50 Human Whole Blood IL-5
Procedure: as §1, §2

IL-4 [4] = experiment: Inhibition of IL-4 release in human whole blood; details: Phytohemagglutinin, 48 h, read-out: IC 50 Human Whole Blood IL-4
Procedure: as §1, §2

IL-2 [5] = experiment: Inhibition of IL-2 release in PBMC; details: Homo sapiens, Concanavalin A + PMA, 20 h, read-out: IC 50 PBMC IL-2
Procedure: as §1
as §2, with “PBMC from freshly” for “Freshly”, “were isolated by density gradient using Histopaque” for “was diluted with RPMI medium (1:4.5)”, “seeded in” for “added to”, “Cells” for “Wells”

TNFα [6] = experiment: Inhibition of TNFα release in PBMC; details: Homo sapiens, Concanavalin A + PMA, 20 h, read-out: IC 50 PBMC TNFα
Procedure: as §1
as §2, with “PBMC from freshly” for “Freshly”, “were isolated by density gradient using Histopaque” for “was diluted with RPMI medium (1:4.5)”, “seeded in” for “added to”, “Cells” for “Wells”

IL-5 [7] = experiment: Inhibition of IL-5 release in PBMC; details: Homo sapiens, Phytohemagglutinin, 48 h, read-out: IC 50 PBMC IL-5
Procedure: as §1
as §2, with “PBMC from freshly” for “Freshly”, “were isolated by density gradient using Histopaque” for “was diluted with RPMI medium (1:4.5)”, “seeded in” for “added to”, “Cells” for “Wells”

IL-4 [8] = experiment: Inhibition of IL-4 release in PBMC; details: Homo sapiens, Phytohemagglutinin, 48 h, read-out: IC 50 PBMC IL-4
Procedure: as §1
as §2, with “PBMC from freshly” for “Freshly”, “were isolated by density gradient using Histopaque” for “was diluted with RPMI medium (1:4.5)”, “seeded in” for “added to”, “Cells” for “Wells”

Chain of CRAC channels (Q96D31 whole entry): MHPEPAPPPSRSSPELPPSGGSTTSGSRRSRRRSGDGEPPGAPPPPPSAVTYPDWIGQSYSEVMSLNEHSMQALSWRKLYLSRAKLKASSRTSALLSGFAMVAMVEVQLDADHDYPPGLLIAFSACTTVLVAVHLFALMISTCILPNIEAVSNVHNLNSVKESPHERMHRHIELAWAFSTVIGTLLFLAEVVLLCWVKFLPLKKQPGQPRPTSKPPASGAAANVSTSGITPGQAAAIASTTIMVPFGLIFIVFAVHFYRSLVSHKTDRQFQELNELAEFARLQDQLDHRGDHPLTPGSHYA

O=C(Cn1nnc2ccccc21)Nc1ccc(-n2nc(C(F)(F)F)cc2C2CC2)cc1 [Example 20, 2-(1H-benzo[d][1,2,3]triazol-1-yl)-N-{4-[5-cyclopropyl-3-(trifluoromethyl)-1H-pyrazol-1-yl]phenyl}acetamide]
IC50 (CRAC channels): 39.2 nM | inhibition at 1 µM (CRAC channels; 1 uM): 100% | IC50 (IL-2 [1]): 40.7 nM | IC50 (TNFα [2]): 35.6 nM | IC50 (IL-5 [3]): 164 nM | IC50 (IL-4 [4]): 1230 nM | IC50 (IL-2 [5]): 383 nM | IC50 (TNFα [6]): 138 nM | IC50 (IL-5 [7]): 149 nM | IC50 (IL-4 [8]): 540 nM
